Reference: ChEMBL document CHEMBL1201862, “PubChem BioAssay data set” (2004)
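Five concentrations, 48 hours, 96-well plates. GI50 marks 50% less growth.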 Activity calls are given as the source filed them. No stated cut-off is given here; in the data, active = GI50 up to about 1.1 µM and inactive = higher.

Columns and labels:
Assay in all cases: inhibition of tumour cell growth, NCI panel, 48 h
M14 = tested on: M14
SK-OV-3 = tested on: SK-OV-3
RPMI-8226 = tested on: RPMI-8226
SF-539 = tested on: SF-539
UACC-62 = tested on: UACC-62
OVCAR-4 = tested on: OVCAR-4
SK-MEL-28 = tested on: SK-MEL-28
KM12 = tested on: KM12
K562 = tested on: K562
SW-620 = tested on: SW-620
NCI-H522 = tested on: NCI-H522
UACC-257 = tested on: UACC-257
CAKI-1 = tested on: CAKI-1
COLO 205 = tested on: COLO 205
T47D = tested on: T47D
SR = tested on: SR
MDA-MB-435 = tested on: MDA-MB-435
OVCAR-3 = tested on: OVCAR-3
MDA-MB-231 = tested on: MDA-MB-231
MDA-N = tested on: MDA-N

SMILES	GI50 (M14)	GI50 (SK-OV-3)	GI50 (RPMI-8226)	GI50 (SF-539)	GI50 (UACC-62)	GI50 (OVCAR-4)	GI50 (SK-MEL-28)	GI50 (KM12)	GI50 (K562)	GI50 (SW-620)	GI50 (NCI-H522)	GI50 (UACC-257)	GI50 (CAKI-1)	GI50 (COLO 205)	GI50 (T47D)	GI50 (SR)	GI50 (MDA-MB-435)	GI50 (OVCAR-3)	GI50 (MDA-MB-231)	GI50 (MDA-N)
O=C(CSc1nc2nncc-2c(O)[nH]1)c1ccc(Cl)cc1	> 100 µM (inactive)	> 100 µM (inactive)	> 100 µM (inactive)	> 100 µM (inactive)	> 100 µM (inactive)	> 100 µM (inactive)	> 100 µM (inactive)	> 100 µM (inactive)	> 100 µM (inactive)	> 100 µM (inactive)	> 100 µM (inactive)	> 100 µM (inactive)	> 100 µM (inactive)	> 100 µM (inactive)	> 100 µM (inactive)	> 100 µM (inactive)	> 100 µM (inactive)	> 100 µM (inactive)	> 100 µM (inactive)	> 100 µM (inactive)
Cc1ccccc1NC(=O)CC(=O)NNC(Sc1ccccc1)c1cc(/N=N/c2ccc(Br)cc2)ccc1O (stereo not given)	0.723 µM (active)	5.26 µM (inactive)	1.7 µM (inactive)	1.37 µM (inactive)	1 µM (active)	2.09 µM (inactive)	6.52 µM (inactive)	4.79 µM (inactive)	2.73 µM (inactive)	0.723 µM (active)	6.01 µM (inactive)	3.65 µM (inactive)	2.53 µM (inactive)	3.1 µM (inactive)	3.93 µM (inactive)	0.37 µM (active)	3.65 µM (inactive)	0.368 µM (active)	1.14 µM (inactive)	3.14 µM (inactive)
CC1=C(C(=O)Nc2ccccc2)C(c2ccc(C3C(C(=O)Nc4ccccc4)=C(C)NC(C)=C3C(=O)Nc3ccccc3)cc2)C(C(=O)Nc2ccccc2)=C(C)N1	2.5 µM (inactive)	13.1 µM (inactive)	2.61 µM (inactive)	3.56 µM (inactive)	1.67 µM (inactive)	6.03 µM (inactive)	1.79 µM (inactive)	2.09 µM (inactive)	2.67 µM (inactive)	2.11 µM (inactive)	1.54 µM (inactive)	2.13 µM (inactive)	4.02 µM (inactive)	3.21 µM (inactive)	2.7 µM (inactive)	2.03 µM (inactive)	1.86 µM (inactive)	4.38 µM (inactive)	2.8 µM (inactive)	3.23 µM (inactive)
CCCCCCOc1ccc(NC2=C(Cl)C(=O)c3c(O)ccc(O)c3C2=O)cc1	2.01 µM (inactive)	> 10 µM (inactive)	1.4 µM (inactive)	2.4 µM (inactive)	2.58 µM (inactive)	4.14 µM (inactive)	2 µM (inactive)	1.88 µM (inactive)	3.1 µM (inactive)	2.2 µM (inactive)	2.15 µM (inactive)	3.85 µM (inactive)	5.28 µM (inactive)	1.78 µM (inactive)	2.03 µM (inactive)	1.94 µM (inactive)	1.72 µM (inactive)	2.02 µM (inactive)	1.86 µM (inactive)	2.99 µM (inactive)
Cc1ccc(CC2(C(=O)O)Cc3ccc(C)cc3C2)cc1 (stereo not given)	> 100 µM (inactive)	> 100 µM (inactive)	69.3 µM (inactive)	> 100 µM (inactive)	56.5 µM (inactive)	> 100 µM (inactive)	> 100 µM (inactive)	89.7 µM (inactive)	61.7 µM (inactive)	> 100 µM (inactive)	> 100 µM (inactive)	> 100 µM (inactive)	> 100 µM (inactive)	84.3 µM (inactive)	> 100 µM (inactive)	> 100 µM (inactive)	> 100 µM (inactive)	> 100 µM (inactive)	89.1 µM (inactive)	> 100 µM (inactive)
